Tested on: KRAS patient-derived spheroids with HUVEC/MSC, viability
Experiment: Anticancer human tumor 519858-162-T-J1-PDC patient-derived colon adenocarcinoma cell line growth inhibition [KRAS2]
Conditions: for viability, T/C: stronger effect = lower value
In short: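 KRAS-mutant tumor cells were grown as spheroids with HUVEC endothelial cells and human MSCs as stroma. Targeted agents were tested alone and with KRAS pathway inhibitors. Doses started at or near clinical Cmax, or 10 microM, descending half-log.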

[1] = curve of first compound, second compound 0.0316 µM
[2] = curve of first compound, second compound 0.1 µM
[3] = curve of first compound, second compound 0.316 µM
[4] = curve of first compound, second compound 1 µM
[5] = curve of first compound, second compound 3.16 µM
[6] = second compound 0.0316 µM, first compound 0.0316 µM
[7] = second compound 0.0316 µM, first compound 0.1 µM
[8] = second compound 0.0316 µM, first compound 0.316 µM
[9] = second compound 0.0316 µM, first compound 1 µM
[10] = second compound 0.0316 µM, first compound 3.16 µM
[11] = second compound 0.0316 µM, first compound 10 µM
[12] = second compound 0.1 µM, first compound 0.0316 µM
[13] = second compound 0.1 µM, first compound 0.1 µM
[14] = second compound 0.1 µM, first compound 0.316 µM
[15] = second compound 0.1 µM, first compound 1 µM
[16] = second compound 0.1 µM, first compound 3.16 µM
[17] = second compound 0.1 µM, first compound 10 µM
[18] = second compound 0.316 µM, first compound 0.0316 µM
[19] = second compound 0.316 µM, first compound 0.1 µM
[20] = second compound 0.316 µM, first compound 0.316 µM
[21] = second compound 0.316 µM, first compound 1 µM
[22] = second compound 0.316 µM, first compound 3.16 µM
[23] = second compound 0.316 µM, first compound 10 µM
[24] = second compound 1 µM, first compound 0.0316 µM
[25] = second compound 1 µM, first compound 0.1 µM
[26] = second compound 1 µM, first compound 0.316 µM
[27] = second compound 1 µM, first compound 1 µM
[28] = second compound 1 µM, first compound 3.16 µM
[29] = second compound 1 µM, first compound 10 µM
[30] = second compound 3.16 µM, first compound 0.0316 µM
[31] = second compound 3.16 µM, first compound 0.1 µM
[32] = second compound 3.16 µM, first compound 0.316 µM
[33] = second compound 3.16 µM, first compound 1 µM
[34] = second compound 3.16 µM, first compound 3.16 µM
[35] = second compound 3.16 µM, first compound 10 µM
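Also: compound exposure lasted seven days before readout.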
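For viability, T/C in this document: 100% = DMSO vehicle control viability.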

SMILES | IC50 [2] | IC50 [3] | IC50 [4] | IC50 [5] | viability, T/C [12] | viability, T/C [13] | viability, T/C [14] | viability, T/C [15] | viability, T/C [16] | viability, T/C [17] | viability, T/C [18] | viability, T/C [19] | viability, T/C [20] | viability, T/C [21] | viability, T/C [22] | viability, T/C [23] | viability, T/C [24] | viability, T/C [25] | viability, T/C [26] | viability, T/C [27] | other results
COc1cc2nccc(Oc3ccc(NC(=O)C4(C(=O)Nc5ccc(F)cc5)CC4)cc3)c2cc1OC + C=CC(=O)N1CCN(c2nc(OCC3CCCN3C)nc3c2CCN(c2cccc4cccc(C)c24)C3)CC1CC#N | > 10 µM | > 10 µM | > 10 µM | 4.78 µM | 85.2% | 98.3% | 80.3% | 77.9% | 77.2% | 84.5% | 109% | 82.5% | 109% | 99.1% | 98.5% | 132% | 71.5% | 74.5% | 77.6% | 76.8% | IC50 [1]: > 10 µM; viability, T/C [6]: 73.6%; viability, T/C [7]: 99.7%; viability, T/C [8]: 91.6%; viability, T/C [9]: 78.1%; viability, T/C [10]: 103%; viability, T/C [11]: 122%; viability, T/C [28]: 104%; viability, T/C [29]: 145%; viability, T/C [30]: 77.6%; viability, T/C [31]: 72.2%; viability, T/C [32]: 69.5%; viability, T/C [33]: 74.8%; viability, T/C [34]: 93.5%; viability, T/C [35]: 0.86%
CCNC(=O)CC1N=C(c2ccc(Cl)cc2)c2cc(OC)ccc2-n2c(C)nnc21 (configuration not stated) + COc1cc2nc(C)nc(NC(C)c3cc(N)cc(C(F)(F)F)c3)c2cc1OC1CCOC1 | 1.41 µM | 0.656 µM | 0.531 µM | 0.367 µM | 82.4% | 90.9% | 86.2% | 67.9% | 7.95% | 5.72% | 78.8% | 125% | 78.3% | 33.1% | 8.12% | 9.79% | 71.1% | 58.3% | 66.2% | 31.5% | IC50 (curve of first compound, second compound 10 µM): 0.106 µM; viability, T/C [28]: 5.67%; viability, T/C [29]: 7.44%; viability, T/C [30]: 70%; viability, T/C [31]: 90.5%; viability, T/C [32]: 55.4%; viability, T/C [33]: 13.8%; viability, T/C [34]: 6.83%; viability, T/C [35]: 9.55%; viability, T/C (second compound 10 µM, first compound 0.0316 µM): 58%; viability, T/C (second compound 10 µM, first compound 0.1 µM): 48%; viability, T/C (second compound 10 µM, first compound 0.316 µM): 33%; viability, T/C (second compound 10 µM, first compound 1 µM): 7.95%; viability, T/C (second compound 10 µM, first compound 3.16 µM): 6.57%; viability, T/C (second compound 10 µM, first compound 10 µM): 5.25%
CN(C)C/C=C/C(=O)Nc1cc2c(Nc3ccc(F)c(Cl)c3)ncnc2cc1O[C@H]1CCOC1 | – | – | – | – | – | – | – | – | – | – | – | – | – | – | – | – | – | – | – | – | viability, T/C (compound 0.1 µM): 92.6% [middle of 5 runs]; IC50 (curve of compound): > 0.1 µM
COc1cc(Nc2ncc3c(n2)-c2ccc(Cl)cc2C(c2c(F)cccc2OC)=NC3)ccc1C(=O)O + C=CC(=O)N1CCN(c2nc(OCC3CCCN3C)nc3c2CCN(c2cccc4cccc(C)c24)C3)CC1CC#N | > 10 µM | > 10 µM | > 10 µM | > 10 µM | 89.1% | 82.2% | 102% | 78.8% | 90.5% | 130% | 105% | 89.9% | 63.2% | 75% | 82.5% | 111% | 103% | 80.8% | 66.8% | 69.2% | IC50 [1]: > 10 µM; viability, T/C [6]: 104%; viability, T/C [7]: 87.2%; viability, T/C [8]: 97.3%; viability, T/C [9]: 90.3%; viability, T/C [10]: 74.6%; viability, T/C [11]: 98%; viability, T/C [28]: 99.8%; viability, T/C [29]: 110%; viability, T/C [30]: 74.5%; viability, T/C [31]: 83%; viability, T/C [32]: 75.3%; viability, T/C [33]: 77.2%; viability, T/C [34]: 109%; viability, T/C [35]: 74.3%

Reference: PubChem BioAssay AID1963872 (Molecular Pharmacology Branch, DTP, NCI, 2024)
